Laboratory results: patent US11884647B2, “Compounds and methods for targeting pathogenic blood vessels” (THE REGENTS OF THE UNIVERSITY OF CALIFORNIA, priority 2019, dated 2024)

Test system: tumor endothelial cells (LL/2 lung cancer tumor)
Assay: Lung LL2 ex vivo model of tumor angiogenesis
Assay type: cell-based, mouse
Conditions: for cytotoxicity at 40 µM / cytotoxicity at 10 µM / cytotoxicity at 20 µM: Mus musculus, Endothelial cell, 48 h, read-out: Cell death
Description: This example describes a procedure to prepare a primary tumor angiogenesis model for assessing the efficacy of anti-cancer candidate agents.
1. The day before the experiment, spray all necessary tools with 70% ethanol and sterilize them under UV light overnight, including blade, dissecting and micro-dissecting scissors and […]. Place 24-well dishes at 4° C. to pre-chill plates and thaw Matrigel 24 hours before tumor dissection.
2. Spray 70% ethanol on working bench. Prepare two sterile petri dishes with 10 mL sterile PBS. Steps 3 and 4 are for mouse tumor models. For fresh human tumor, directly go to step 5.
3. Euthanize the tumor-bearing mice. Spray 70% ethanol on the mouse and remove the tumor using sterilized dissecting tools (avoid the fur). Rinse the tumor in petri dish with sterile PBS to remove ethanol and fur. Transfer the tumor to a new petri dish with PBS for dissection. Place the dish on ice.
4. Using pre-chilled sterile pipet tips to seed regular Matrigel in 24 well plates on ice. Matrigel (30 μL) is dropped in the middle of each well without touching the edge of the well (avoid introducing bubbles if possible).
5. Cut the tumor in halves using the sterile blade. Identify and isolate healthy tumor tissue that is not necrotic and is within the tumor capsule. Cut the healthy tumor tissue into small pieces. For instance, a suitable size for the tumor tissue is 0.5 mm (H)×0.5 mm (L)×0.3 mm (D) with a total volume of 0.075 mm^3.
6. Gently transfer and embed each tumor piece in the Matrigel drop in the 24-well plate. Place the embedded piece in the bottom and middle of each Matrigel drop. Keep the plate on ice all the time.
7. After seeding the tumor pieces, plates are incubated in a 37° C. cell culture incubator without medium for 10 minutes in order for the Matrigel to solidify.
8. Endothelial Growth Medium (0.5 mL) is added to each well and incubated at 37° C. with 5% CO2. Wait until the new endothelial cells have grown out of the tumor or are larger than 3 mm in diameter until treatment. This usually takes 4 days for the LL2 Lewis lung cancer model and 7 days for the CT26 colon cancer model. For human tumor models, the growth time is typically 2-3 weeks, depending on the tumor type. Media is changed every 4 days during prolonged culture. Typically, when the tumor tissue grows to 2 mm in diameter, it is good for drug testing. A size of about 3 mm in diameter can make visualization easier.
9. When the assay is ready to be analyzed for cell death (e.g., 48 hours after drug addition), prepare the dye mixture by mixing 6 μL of green dye to stain live cells (5 mg/mL Fluorescein diacetate or FDA in DMSO) with 30 μL of red dye (2.5 mg/mL Propidium iodide or PI in PBS) to stain dead cells in an Eppendorf tube. The FDA dye needs to be stored frozen in a −20° C. freezer because it has a labile ester bond.
10. Add 1 μL of the dye mixture to each well of the 24-well dish. It is usually performed one 24-well dish at a time given the amount of time needed to take pictures (the green dye is not as stable in the cells in the long term).
11. Gently rock the dish a few times to mix the dye with the media in the wells and incubate the dish at 37° C. for 10 min (too long incubation can make the green signal too intense).
12. Wash each well with 0.5 mL of sterile PBS and then add 0.5 mL of phenol red free SFM to each well. Alternatively 0.5 mL of regular Endothelial Cell Growth Media can be added to each well if this well needs to be continuously maintained after the experiment.
13. Look through all wells on an inverted microscope using the 2× objective lens to observe morphological changes.
14. Taking pictures in the red and green channels would allow not only the recording of the result but also more accurate quantitation of the result. To take pictures for all the wells, first pick a well that has robust red and green signals. […]

Row | SMILES | cytotoxicity at 40 µM [%] | cytotoxicity at 20 µM [%] | further results
1 | CCOC(=O)c1ccc2ncc(S(=O)(=O)c3ccc(OC)cc3)c(N3CCC(N4CCN(C)CC4)CC3)c2c1 [compound 171, ethyl 3-((4-methoxyphenyl)sulfonyl)-4-(4-(4-methylpiperazin-1-yl)piperidin-1-yl)quinoline-6-carboxylate] | 40 | – | –
2 | CCCCCCCCCCOc1ccc(S(=O)(=O)c2cnc3ccc([S+](C)[O-])cc3c2N2CCC(N3CCC(N4CCCC(O)C4)CC3)CC2)cc1 (centres unmarked) [compound 288, 1″-(3-((4-(decyloxy)phenyl)sulfonyl)-6-(methylsulfinyl)quinolin-4-yl)-[1,4′:1′,4″- terpiperidin]-3-ol] | – | – | cytotoxicity at 10 µM: 50%
3 | CCCCCCCCCCOc1ccc(S(=O)(=O)c2cnc3ccc([S+](C)[O-])cc3c2N2CCC(N3CCC(N4CCCCC4)CC3)CC2)cc1 (centres unmarked) [compound 269, 4-([1,4′:1′,4″-terpiperidin]-1″-yl)-3-((4-(decyloxy)phenyl)sulfonyl)-6-(methylsulfinyl)quinoline] | – | 100 | –
4 | CCCCCCCOc1ccc(S(=O)(=O)c2cnc3ccc(SC)cc3c2N2CCC(N3CCN(CCO)CC3)CC2)cc1 [compound 250, 2-(4-(1-(3-((4-(heptyloxy)phenyl)sulfonyl)-6-(methylthio)quinolin-4-yl)piperidin-4-yl)piperazin-1-yl)ethan-1-ol] | – | 90 | –
5 | CCCCCCCCCCCCOc1ccc(S(=O)(=O)c2cnc3ccc([S+](C)[O-])cc3c2N2CCC(N3CCC(N4CCN(C)CC4)CC3)CC2)cc1 (centres unmarked) [compound 341, 3-((4-(dodecyloxy)phenyl)sulfonyl)-4-(4-(4-methylpiperazin-1-yl)-[1,4′-bipiperidin]-1′-yl)-6-(methylsulfinyl)quinoline] | – | 80 | –
6 | COc1ccc(S(=O)(=O)c2cnc3cc(OC)c(OC)cc3c2N2CCC3C(COCCN3CC(C)C)C2)cc1 (centres unmarked) [compound 324, 7-(6,7-dimethoxy-3-((4-methoxyphenyl)sulfonyl)quinolin-4-yl)-1-isobutyldecahydropyrido[4,3-e][1,4]oxazepine] | 60 | – | –
7 | CCc1ccc(S(=O)(=O)c2cnc3ccc(OC(F)(F)F)cc3c2-n2cccn2)cc1 [compound 109, 3-((4-ethylphenyl)sulfonyl)-4-(1H-pyrazol-1-yl)-6-(trifluoromethoxy)quinoline] | – | 0 | –
8 | CCCCCCCOc1ccc(S(=O)(=O)c2cnc3ccc(SC)cc3c2N2CCC(N3CCCN(C)CC3)CC2)cc1 [compound 249, 3-((4-(heptyloxy)phenyl)sulfonyl)-4-(4-(4-methyl-1,4-diazepan-1-yl)piperidin-1-yl)-6-(methylthio)quinoline] | – | 60 | –
9 | CCCCCCCOc1ccc(S(=O)(=O)c2cnc3ccc(SC)cc3c2N2CCC(N3CCC(O)CC3)CC2)cc1 [compound 223, 1′-(3-((4-(heptyloxy)phenyl)sulfonyl)-6-(methylthio)quinolin-4-yl)-[1,4′-bipiperidin]-4-ol] | – | – | Cell death (rim) (Lung LL2 ex vivo, Conc. 40 μm, (rim)): 30%
10 | CCCCCCCCCCOc1ccc(S(=O)(=O)c2cnc3ccc([S+](C)[O-])cc3c2N2CCCN(CCN3CCCCC3)CC2)cc1 (centres unmarked) [compound 266, 3-((4-(decyloxy)phenyl)sulfonyl)-6-(methylsulfinyl)-4-(4-(2-(piperidin-1-yl)ethyl)-1,4-diazepan-1-yl)quinoline] | – | – | cytotoxicity at 10 µM: 5%
11 | CCOC(=O)c1ccc2ncc(S(=O)(=O)c3ccc(OC)cc3)c(N3CCC(N4CCCCCC4)CC3)c2c1 [compound 173, ethyl 4-(4-(azepan-1-yl)piperidin-1-yl)-3-((4-methoxyphenyl)sulfonyl)quinoline-6-carboxylate] | 50 | – | –
12 | CCCCCCCOc1ccc(S(=O)(=O)c2cnc3ccc(SC)cc3c2N2CCN(CCN3CCCC3)CC2)cc1 [compound 272, 3-((4-(heptyloxy)phenyl)sulfonyl)-6-(methylthio)-4-(4-(2-(pyrrolidin-1-yl)ethyl)piperazin-1-yl)quinoline] | – | 20 | –
13 | CCCCOc1ccc(S(=O)(=O)c2cnc3ccc([S+](C)[O-])cc3c2N2CCC(N3CCOCC3)CC2)cc1 (centres unmarked) [compound 235, 4-(1-(3-((4-butoxyphenyl)sulfonyl)-6-(methylsulfinyl)quinolin-4-yl)piperidin-4-yl)morpholine] | 10 | – | –
14 | CCCCCCCCCCCCOc1ccc(S(=O)(=O)c2cnc3ccc([S+](C)[O-])cc3c2N2CCC(N3CCN(CCO)CC3)CC2)cc1 (centres unmarked) [compound 339, 2-(4-(1-(3-((4-(dodecyloxy)phenyl)sulfonyl)-6-(methylsulfinyl)quinolin-4-yl)piperidin-4-yl)piperazin-1-yl)ethan-1-ol] | – | 50 | –
15 | CCOC(=O)c1ccc2ncc(S(=O)(=O)c3ccc(OC)cc3)c(NN3CCN(C)CC3)c2c1 [compound 225, ethyl 3-((4-methoxyphenyl)sulfonyl)-4-((4-methylpiperazin-1-yl)amino)quinoline-6-carboxylate] | 40 | – | –
16 | COc1ccc(S(=O)(=O)c2cnc3ccc(C(=O)N(C)C)cc3c2N2CCC(N3CCCC3=O)CC2)cc1 [compound 332, 3-((4-methoxyphenyl)sulfonyl)-N,N-dimethyl-4-(4-(2-oxopyrrolidin-1-yl)piperidin-1-yl)quinoline-6-carboxamid] | 0 | – | –
17 | CCCCCCCOc1ccc(S(=O)(=O)c2cnc3ccc(SC)cc3c2N2CCC(N3CCN(C)CC3)CC2)cc1 [compound 246, 3-((4-(heptyloxy)phenyl)sulfonyl)-4-(4-(4-methylpiperazin-1-yl)piperidin-1-yl)-6-(methylthio)quinoline] | – | 95 | –
18 | CCc1ccc(S(=O)(=O)c2cnc3ccc(OC(F)(F)F)cc3c2NCCCCO)cc1 [compound 111, 4-((3-((4-ethylphenyl)sulfonyl)-6-(trifluoromethoxy)quinolin-4-yl)amino)butan-1-ol] | – | 30 | –
19 | CCOC(=O)c1ccc2ncc(S(=O)(=O)c3ccc(OC)cc3)c(N3CCC(N4CCC(CO)CC4)CC3)c2c1 [compound 175, ethyl 4-(4-(hydroxymethyl)-[1,4′-bipiperidin]-1′-yl)-3-((4-methoxyphenyl)sulfonyl)quinoline-6-carboxylate] | 30 | – | –
20 | COc1ccc(S(=O)(=O)c2cnc3cc(OC)c(OC)cc3c2N2CCC(N3CCCC3CO)CC2)cc1 (centres unmarked) [compound 322, (1-(1-(6,7-dimethoxy-3-((4-methoxyphenyl)sulfonyl)quinolin-4-yl)piperidin-4-yl)pyrrolidin-2-yl)methanol] | 30 | – | –
21 | CCCCCCCCCCCCOc1ccc(S(=O)(=O)c2cnc3ccc([S+](C)[O-])cc3c2N2CCC(N3CCC(N4CCCC(O)C4)CC3)CC2)cc1 (centres unmarked) [compound 343, 1″-(3-((4-(dodecyloxy)phenyl)sulfonyl)-6-(methylsulfinyl)quinolin-4-yl)-[1,4′:1′,4″-terpiperidin]-3-ol] | – | 50 | –
22 | CCCCCCCCCCCCCCOc1ccc(S(=O)(=O)c2cnc3ccc([S+](C)[O-])cc3c2N2CCC(N3CCC(N4CCCC(O)C4)CC3)CC2)cc1F (centres unmarked) [compound 367, 1″-(3-((3-fluoro-4-(tetradecyloxy)phenyl)sulfonyl)-6-(methylsulfinyl)quinolin-4-yl)-[1,4′:1′,4″- terpiperidin]-3-ol] | – | 5 | –
23 | COc1ccc(S(=O)(=O)c2cnc3ccc(SC)cc3c2NN2CCN(C)CC2)cc1 [compound 226, 3-((4-methoxyphenyl)sulfonyl)-N-(4-methylpiperazin-1-yl)-6-(methylthio)quinolin-4-amine] | 10 | – | –
